From PMC4520625 (Biochemistry, 2015)

Legend:
[1] = target: N-terminal domain of galectin-9 (Homo sapiens, UniProt O00182); format: cell-based; details: CHO wild-type cells, 1 mM
galectin-3 (full-length) = galectin-3 (full-length) (Homo sapiens, UniProt P17931); assay: Isothermal titration calorimetry, full-length galectin-3; format: binding
galectin-3 CRD = galectin-3 CRD (Homo sapiens, UniProt P17931); assay: Isothermal titration calorimetry, galectin-3 CRD; format: binding
galectin-3 = galectin-3 (Homo sapiens, UniProt P17931); assay: Cell-based assay: inhibition of galectin-3 surface staining of SW480 cells; details: peptides at up to 1 mM
Chain of galectin-3 (P17931 whole entry): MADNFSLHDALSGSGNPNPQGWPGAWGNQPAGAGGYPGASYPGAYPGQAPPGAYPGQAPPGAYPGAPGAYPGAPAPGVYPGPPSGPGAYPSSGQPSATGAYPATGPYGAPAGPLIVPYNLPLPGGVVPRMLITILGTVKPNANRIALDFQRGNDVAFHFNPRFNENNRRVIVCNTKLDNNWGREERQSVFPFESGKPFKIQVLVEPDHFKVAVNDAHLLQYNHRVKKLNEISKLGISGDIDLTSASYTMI

Chain of galectin-3 CRD (P17931 118-248 limits assumed): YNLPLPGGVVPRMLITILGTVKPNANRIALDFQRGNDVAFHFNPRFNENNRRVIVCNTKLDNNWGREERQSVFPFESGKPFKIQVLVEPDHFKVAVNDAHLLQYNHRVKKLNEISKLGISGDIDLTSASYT
Chain of galectin-3 (full-length) (P17931 whole entry): as the sequence (P17931 whole entry) above
Chain of N-terminal domain of galectin-9 (O00182 1-148): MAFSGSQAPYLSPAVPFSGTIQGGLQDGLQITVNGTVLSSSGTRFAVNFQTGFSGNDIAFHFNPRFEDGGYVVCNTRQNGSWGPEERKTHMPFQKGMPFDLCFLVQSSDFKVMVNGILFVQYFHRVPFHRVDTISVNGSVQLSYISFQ

| Compound | inhibition of galectin-9 binding to cells (in words) [1] | Kd (galectin-3 (full-length)) | n (stoichiometry) (galectin-3 (full-length); full-length galectin-3, ITC) | –TΔS (galectin-3 (full-length); full-length galectin-3, ITC) | –ΔH (galectin-3 (full-length); full-length galectin-3, ITC) | Ka (galectin-3 (full-length); full-length galectin-3, ITC, 25 °C, pH 7.2) | Kd (galectin-3 CRD) | n (stoichiometry) (galectin-3 CRD; galectin-3 CRD, ITC) | –TΔS (galectin-3 CRD; galectin-3 CRD, ITC) | –ΔG (galectin-3 CRD; galectin-3 CRD, ITC) | –ΔH (galectin-3 CRD; galectin-3 CRD, ITC) | Ka (galectin-3 CRD; galectin-3 CRD, ITC, 25 °C, pH 7.2) | inhibition of galectin-3 binding to cells (in words) (galectin-3) |
| --- | --- | --- | --- | --- | --- | --- | --- | --- | --- | --- | --- | --- | --- |
| OC[C@H]1O[C@@H](O[C@H]2[C@H](O)[C@@H](O)C(O)O[C@@H]2CO)[C@H](O)[C@@H](O)[C@H]1O (mixture of isomers) [Lac, lactose] | inhibitory | – | – | – | – | – | – | – | – | – | – | – | – |
| CC(=O)N[C@H]1C(O)O[C@H](CO)[C@H](O)[C@@H]1O[C@@H]1O[C@H](CO)[C@H](O)[C@H](O)[C@H]1O (stereo partly drawn) [TF, 2-acetamido-2-deoxy-3-O-(β-D-galactopyranosyl)-D-galactopyranose] | – | 245 µM | 0.82 | 3.30 kcal/mol | 8.74 kcal/mol | 0.40 ×10^–4 M^–1 | 248 µM | 0.93 | 9.11 kcal/mol | 4.94 kcal/mol | 14.05 kcal/mol | 0.40 ×10^–4 M^–1 | – |
| CC(=O)N[C@H]1C(O)O[C@H](CO)[C@H](O)[C@@H]1O (some centres unmarked) [GalNAc, N-acetylgalactosamine] | inhibitory | – | – | – | – | – | – | – | – | – | – | – | less active than Lac |
